Results reported in article PMC6789111, “Crossing the blood-brain-barrier with nanoligand drug carriers self-assembled from a phage display peptide” (Nature Communications, 2019).
Peptide text beside a SMILES is read from it. * marks the point of attachment. 5FAM = O=C1OC2(c3ccc(O)cc3Oc3cc(O)ccc32)c2ccc(C(=O)*)cc21

How the values were obtained:
hCMEC/D3 cells [1] = assay: Cell uptake by flow cytometry; type: cell-based, human; settings: 5 µM, 24 h, 37 °C, flow cytometry (Supplementary Fig. 13)
Procedure: Peptide internalisation was measured by flow cytometry (FACS ArrayTM Cell Analysis, Becton, Dickinson and Company, NJ, USA). Cells (1 × 10^5 cm^−2) were seeded on 24-well plates and grown 1 day at 37 °C and 5% CO2 in order to reach 60–70% confluence. The cells were washed 3 times with pre-heated PBS. The uptake studies were initiated by adding 500 µL of 5 µM fluorescence-labelled peptides (diluted in cell medium containing with different serum concentration). Serum concentration in incubation varied from 5 to 20% (v/v). […] A total of 10,000 cells were analysed by flow cytometry.

hCMEC/D3 cells [2] = assay: Trypan Blue exclusion test; type: cell-based, human; settings: after receptor down regulation
RAGE = RAGE silencing with siPORT Amine, Western blot; type: cell-based, human; settings: 28 nM siRNA with siPORT Amine
Procedure: (§1) hCMEC/D3 cells were transfected with anti-TfR siRNA [sense sequence ([NT]) and antisense sequence ([NT])] or anti-RAGE siRNA [sense sequence ([NT]) and antisense sequence [NT]] or control siRNA using siPORT Amine transfection agent, according to the manufacturer' Neofection protocol. Briefly, siPORT Amine transfection reagent (7 μL) was added to serum-free cell medium to a final volume of 100 μL and vortexed. […] The mixture was gently mixed and incubated at room temperature for 20 min. The transfection agent/siRNA complex was added to culture plates containing 2.3 × 10^5 hCMEC/D3 cells in 2.3 mL normal growth medium. The final concentration of siRNA was 28 nM. After 24 h incubation, the medium containing transfection agent/siRNA complex was removed and fresh growth medium was added. After 48 h post transfection, the level of target protein (TfR or RAGE) was determined by Western blotting. […] Uptake was quantified by measuring fluorescence using FACS. Transferrin receptor and RAGE expression level in human cells was determined by Western blot analysis. Briefly, cells were seeded in 75 cm^2-flasks and grown to reach 60-70% confluence. The cells were washed in ice-cold PBS three times and then scraped off the flask and collected by centrifugation. The pelleted cells were lysed for 10 min at room temperature on a shaker (900 rpm) following the ProteoJETTM Mammalian Cell Lysis Reagent protocol. Lysates were spun in a centrifuge at 18,000 × g for 15 min and the supernatant was collected. Equal protein aliquots were resolved by SDS-PAGE, transferred to nitrocellulose membranes using iBot Dry Blotting system (Invitrogen, CA, USA), immunoblotted with primary antibodies (mouse anti-human TfR antibody or rabbit polyclonal to mouse and human RAGE) (1;200 and 1:750, respectively) and detected with HRP-Goat-anti-mouse (or rabbit) IgG (H + L) secondary antibody (1:3000). Tubulin was immunoblotted with mouse anti-human-β-tubulin (1:200) and detected with HRP-Goat-anti-mouse IgG (H + L) secondary antibody (1:3000). These were followed by incubation with Novex® ECL Chemiluminescent Substrate Reagent Kit. The Bands were quantified with ImageJ 1.44p (http://imagej.nih.gov/ij/).

TfR [3] = assay: TfR silencing by peptide/siRNA nano-assemblies, Western blot; type: cell-based, human
Procedure: Transferrin receptor and RAGE expression level in human cells was determined by Western blot analysis. Briefly, cells were seeded in 75 cm^2-flasks and grown to reach 60-70% confluence. The cells were washed in ice-cold PBS three times and then scraped off the flask and collected by centrifugation. The pelleted cells were lysed for 10 min at room temperature on a shaker (900 rpm) following the ProteoJETTM Mammalian Cell Lysis Reagent protocol. Lysates were spun in a centrifuge at 18,000 × g for 15 min and the supernatant was collected. Equal protein aliquots were resolved by SDS-PAGE, transferred to nitrocellulose membranes using iBot Dry Blotting system (Invitrogen, CA, USA), immunoblotted with primary antibodies (mouse anti-human TfR antibody or rabbit polyclonal to mouse and human RAGE) (1;200 and 1:750, respectively) and detected with HRP-Goat-anti-mouse (or rabbit) IgG (H + L) secondary antibody (1:3000). Tubulin was immunoblotted with mouse anti-human-β-tubulin (1:200) and detected with HRP-Goat-anti-mouse IgG (H + L) secondary antibody (1:3000). These were followed by incubation with Novex® ECL Chemiluminescent Substrate Reagent Kit. The Bands were quantified with ImageJ 1.44p (http://imagej.nih.gov/ij/). […] Next, the mixtures were diluted with saline to a final peptide concentration 5 μM for TEM studies. […] After 24 h incubation, the medium was replaced by fresh growth medium. After another 48 h of incubation, the level of the target protein was determined by Western blotting. The results were compared with parallel experiments containing nano-assemblies formed from FAM-CGY and an irrelevant siRNA as well as transfection procedures with complexes formed between siRNA and siPORT Amine transfection agent. Cy3-siRNA uptake was quantified by measuring median cell fluorescence using FACS.

TfR [4] = assay: TfR silencing with siPORT Amine, Western blot; type: cell-based, human; settings: 28 nM siRNA with siPORT Amine
Procedure: as §1

claudin-5 = assay: Claudin-5 silencing, Western blot; type: cell-based, human; settings: siRNA delivered with FAM-CGY (5 µM), 72 h after transfection
Procedure: Peptide/siRNA assemblies were formed by dropwise addition (80–240 nM range) of either Cy3-siRNA or functional anti-TfR siRNA or anti-Claudin-5 siRNA (with the sense and antisense sequences of 5′-[…]tt-3′ and 5′-[…]gc-3′) to 50 µM FAM-CGY in physiological saline and incubated for 30 min. Next, the mixtures were diluted with saline to a final peptide concentration 5 µM for TEM studies. In vitro uptake and silencing experiments were performed in hCMEC/D3 cells. Briefly, peptide/siRNA nano-assemblies (5 µM FAM-CGY and either 8 or 16 or 24 nM functional siRNA, final concentration) were added to 2.3 × 10^5 hCMEC/D3 cells. After 24 h incubation, the medium was replaced by fresh growth medium. After another 48 h of incubation, the level of the target protein was determined by Western blotting. The results were compared with parallel experiments containing nano-assemblies formed from FAM-CGY and an irrelevant siRNA as well as transfection procedures with complexes formed between siRNA and siPORT Amine transfection agent. Cy3-siRNA uptake was quantified by measuring median cell fluorescence using FACS.
Supplementary Fig. 20. […] FAM-CGY (5 µM final concentration)/CLDN5-specific siRNA assemblies effectively down regulates CLDN5 in hCMEC/D3 cells as determined by Western blotting. […] CLDN5 expression was measured 72 h after transfection. […]

IL-1β = assay: ELISA of IL-1β in hippocampus; type: in vivo, ICR mice; settings: 24 h after i.v. (LPS 24 h); Ave.
Iba-1 = assay: ELISA of Iba-1 in hippocampus; type: in vivo, ICR mice; settings: 24 h after i.v. (LPS 24 h); Ave.
GFAP = assay: ELISA of GFAP in hippocampus; type: in vivo, ICR mice; settings: 24 h after i.v. (LPS 24 h); Ave.
IL-6 = assay: ELISA of IL-6 in hippocampus; type: in vivo, ICR mice; settings: 24 h after i.v. (LPS 24 h); Ave.
Procedure: After 4, 24 and 72 h post injection, mice were sacrificed and perfused with 10 mL 0.9% (w/v) saline at a rate of 2 mL min^−1.
Hippocampus was dissected out, rinsed in ice-cold PBS thoroughly, weighted and immediately frozen in liquid nitrogen. Tissues were cut into small pieces and homogenized in 1 mL ice-cold PBS with a glass homogeniser and sonicated with an ultrasonic cell disrupter to break the cell membranes. Homogenates were centrifuges for 5 min at 5,000 × g and supernatants were assayed immediately for quantitative determination of TNF-α, IL-6, IL-1β, Iba-1 and GFAP by corresponding ELISA kits, respectively in accordance with manufacturer’s instructions.

[5] = Blood count after intravenous injection; type: in vivo, ICR mice; settings: mean ± s.d., n = 3
Source text: Supplementary Table 2. Blood count following intravenous injection of FAM-CGY NLCs in free form and complexed with siRNA
Samples WBC RBC HGB HCT MCV MCH MCHC PLT
WBC: white blood cell; RBC: red blood cell count; HGB: haemoglobin; HCT: haematocrit; MCV: mean corpuscular volume; MCH: mean corpuscular haemoglobin; MCHC: mean corpuscular
significance (*p < 0.05). The results are mean ± s.d. (n = 3 animals per group). The experiment was repeated twice with identical results. The siRNA represent BACE-1-specific siRNA. The
final concentration of the peptide conjugate was 10 µM and that of siRNA was 48 nM, based on blood volume calculation equivalent to 6% of the body weight. LPS = lipopolysaccharide.

[6] = hCMEC/D3, control siRNA = 100.00, replicate 1

In the case of `CC[C@H](C)[C@H](NC(=O)[C@H](CC(N)=O)NC(=O)[C@H](Cc1c[nH]cn1)NC(=O)[C@@H](NC(=O)[C@@H]1CCCN1C(=O)[C@H](CCCNC(=N)N)NC(=O)[C@H](Cc1ccc(O)cc1)NC(=O)CNC(=O)c1ccc2c(c1)C(=O)OC21c2ccc(O)cc2Oc2cc(O)ccc21)C(C)C)C(=O)N[C@@H](CCCNC(=N)N)C(=O)NCC(=O)N[C@@H](Cc1c[nH]cn1)C(=O)N[C@@H](Cc1c[nH]c2ccccc12)C(=O)N[C@@H](C)C(=O)N1CCC[C@H]1C(=O)NCC(=O)O` [FAM-GYR] (5FAM-GYRPVHNIRGHWAPG-OH), the “cellular uptake in contrast to FAM-CGY” value (hCMEC/D3 cells [1]) is reported as “relatively low”.
In the case of “RAGE siRNA: sense 5′-GGUGGAACCGUAACCUGAtt-3′, antisense 5′-UCAGGGUUACGGUUCCACCag-3′ (sense GGUGGAACCGUAACCUGATT; antisense UCAGGGUUACGGUUCCACCAG; chemistry not given here)”, the cell viability (hCMEC/D3 cells [2]) is reported as > 95%, the “RAGE expression level (%)” value (RAGE; [6]) is reported as 54.86% and the “RAGE expression level (%)” value (RAGE; Ave.) is reported as 53.86%. The “RAGE expression level (%)” value (RAGE; replicate 2) was 57.89% and the “RAGE expression level (%)” value (RAGE; replicate 3) was 48.82%.
For “TfR siRNA: sense 5′-GGUCAUCAGGAUUGCCUAAtt-3′, antisense 5′-UUAGGCAAUCCUGAUGACCga-3′ (sense GGUCAUCAGGAUUGCCUAATT; antisense UUAGGCAAUCCUGAUGACCGA; chemistry not given here)”, the cell viability (hCMEC/D3 cells [2]) was > 95%, the “TfR expression leve (% of control)” value (TfR [3]; 8 nM siRNA, presumably complexed with 5 µM FAM-CGY, hCMEC/D3, 24 h + 48 h, replicate 1) was 75.56% and the “TfR expression leve (% of control)” value (TfR [3]; 8 nM siRNA, Ave.) was 70.89%. For the same compound, the “TfR expression leve (% of control)” value (TfR [3]; 8 nM siRNA, replicate 2) was 65.03%, the “TfR expression leve (% of control)” value (TfR [3]; 8 nM siRNA, replicate 3) was 72.08% and the “TfR expression leve (% of control)” value (TfR [3]; 16 nM siRNA, Ave.) was 54.45%. The “TfR expression leve (% of control)” value (TfR [3]; 24 nM siRNA, presumably siRNA alone, Ave.) was 90.00%, the “TfR expression leve (% of control)” value (TfR [3]; 24 nM siRNA, presumably with siPORT, Ave.) was 38.58% and the “TfR expression level (%)” value (TfR [4]; [6]) was 30.26%. For the same compound, the “TfR expression level (%)” value (TfR [4]; Ave.) was 34.58%, the “TfR expression level (%)” value (TfR [4]; replicate 2) was 32.56% and the “TfR expression level (%)” value (TfR [4]; replicate 3) was 40.91%.
In the case of “claudin-5-specific siRNA: sense 5′-CCUUAACAGACGGAAUGAAtt-3′, antisense 5′-UUCAUUCCGUCUGUUAAGGgc-3′ (sense CCUUAACAGACGGAAUGAATT; antisense UUCAUUCCGUCUGUUAAGGGC; chemistry not given here)”, the claudin-5 expression (claudin-5) is reported as “downregulation of claudin-5”.
With “lipopolysaccharide from Escherichia coli O55:B5 [LPS]” the “IL-1β in hippocampus (Figure 6g)” value (IL-1β) was 36.79, the “Iba-1 in hippocampus (Figure 6h)” value (Iba-1) was 1.68 and the “GFAP in hippocampus (Figure 6i)” value (GFAP) was 289.26. For the same compound, the “IL-6 in hippocampus (Figure 6f)” value (IL-6) was 9.69, the WBC ([5]; 24 h after i.v. (LPS 200 μg kg−1)) was 1.49±0.26 (×109)L-1 and the HCT ([5]; 24 h after i.v.) was 71.90±6.10%. It also gave an HGB ([5]; 24 h after i.v.) of 152.25±14.25 gL-1, an MCH ([5]; 24 h after i.v.) of 17.45 ± 0.45 pg and an MCHC ([5]; 24 h after i.v.) of 211.75±2.63 gL-1. The MCV ([5]; 24 h after i.v.) was 82.78 ± 1.23 fL, the PLT ([5]; 24 h after i.v.) was 282.45±28.83 (×109)L-1 and the RBC ([5]; 24 h after i.v.) was 8.72±0.61 (×1012)L-1.
